Assay results reported in PMC4144425, “Discovery of a novel iota carrageenan sulfatase isolated from the marine bacterium Pseudoalteromonas carrageenovora” (Frontiers in Chemistry, 2014).

Biological target: T1, Recombinant ι-CgsA (Pseudoalteromonas carrageenovora, UniProt A0A2K4X859)
T1 construct: gene PCARR_a1089; without signal peptide (cleavage Ala22/Gln23 predicted in the Q3IKL4 ortholog), N-terminal 6 His-tag, pFO4 vector, E. coli BL21(DE3); primers for cloning deduced from the P. haloplanktis TAC 125 gene
Experiment: methylumbelliferone release, absorbance at […] nm; hyperbolic regression
Type: biochemical
Details: 35 °C, pH 8.3, 50 mM Tris-HCl, 200 mM NaCl; MUFS 5.2 to 206.5 μM; preliminary; read-out: Apparent Km

T1 sequence (A0A2K4X859 entry or part of it): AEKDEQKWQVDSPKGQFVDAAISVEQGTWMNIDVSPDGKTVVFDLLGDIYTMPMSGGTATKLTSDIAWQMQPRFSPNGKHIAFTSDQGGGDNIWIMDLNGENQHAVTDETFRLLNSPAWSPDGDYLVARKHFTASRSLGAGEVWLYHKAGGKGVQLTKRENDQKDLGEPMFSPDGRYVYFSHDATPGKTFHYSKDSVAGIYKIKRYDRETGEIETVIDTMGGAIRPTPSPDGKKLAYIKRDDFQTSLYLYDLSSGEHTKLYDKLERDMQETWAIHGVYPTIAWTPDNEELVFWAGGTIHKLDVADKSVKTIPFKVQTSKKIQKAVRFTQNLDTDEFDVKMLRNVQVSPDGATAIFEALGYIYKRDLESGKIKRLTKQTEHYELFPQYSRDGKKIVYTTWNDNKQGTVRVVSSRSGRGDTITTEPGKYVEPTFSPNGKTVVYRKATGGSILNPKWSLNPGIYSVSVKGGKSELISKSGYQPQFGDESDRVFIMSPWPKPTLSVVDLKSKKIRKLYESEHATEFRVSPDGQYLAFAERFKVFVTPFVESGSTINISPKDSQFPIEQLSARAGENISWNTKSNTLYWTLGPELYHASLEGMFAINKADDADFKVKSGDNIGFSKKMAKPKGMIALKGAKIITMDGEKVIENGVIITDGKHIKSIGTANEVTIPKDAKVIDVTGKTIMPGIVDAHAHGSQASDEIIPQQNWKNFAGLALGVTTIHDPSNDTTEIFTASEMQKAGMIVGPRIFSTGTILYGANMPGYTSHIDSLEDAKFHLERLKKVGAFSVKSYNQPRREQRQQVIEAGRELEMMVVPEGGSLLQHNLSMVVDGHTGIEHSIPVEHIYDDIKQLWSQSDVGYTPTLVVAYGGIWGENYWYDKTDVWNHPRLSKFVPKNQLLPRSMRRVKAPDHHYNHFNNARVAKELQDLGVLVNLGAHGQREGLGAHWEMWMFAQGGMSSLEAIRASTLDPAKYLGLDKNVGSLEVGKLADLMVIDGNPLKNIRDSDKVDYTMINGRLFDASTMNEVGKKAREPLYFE

- Km: 13.4 ± 4.9 µM
Compound: Cc1cc(=O)oc2cc(OS(=O)(=O)O)ccc12 [MUFS]
